Publication PMC11357256, “Selectivity Screening and Structure–Cytotoxic Activity Observations of Selected Oleanolic Acid (OA)-Type Saponins from the Amaranthaceae Family on a Wiade Panel of Human Cancer Cell Lines” (Molecules, 2024)

How the values were obtained:
[1] = test system: Caco-2; experiment: MTT cell viability assay, Caco-2 colon cancer cells; format: cell-based; details: Homo sapiens
Source text: (§1) Cell lines used in the study were grouped as follows: skin panel (melanomas: HTB140, derived from metastatic site: lymph node, ATCC Hs 294 T; malignant A375, ATCC CRL-1619; stage I primary WM793, RRID:CVCL 8787; skin keratinocytes HaCaT); prostate panel (prostate carcinomas: Du145, derived from metastatic site: brain, ATCC HTB-81; grade IV PC3, derived from metastatic site: bone, ATCC CRL-1435, LNCaP, derived from the metastatic site: lymph node, ATCC CRL-1740; prostate epithelial, PNT2, ECACC 95012613); gastrointestinal panel (colorectal adenocarcinomas: Caco2, ATCC HTB-37, HT29, ATCC HTB-38, DLD-1, ATCC CCL-221, HCT116, ATCC CCL-247, and colon epithelial cells CCD 841 CoN, ATCC CRL-1790; hepatocellular carcinoma HepG2, ATCC HB-8065); thyroid panel (follicular thyroid carcinoma FTC133, ECACC 9406090, undifferentiated thyroid carcinoma 8505C, ECACC 94090184, papillary thyroid carcinoma TPC-1, SCC147, normal thyroid follicular epithelial Nthy-ori 3–1, ECACC 90011609); and breast panel (ER-positive breast adenocarcinoma MCF7, ATCC HTB-22; ER-negative breast adenocarcinoma MDA-MB-231, ATCC HTB-26; breast epithelial MCF10A, ATCC CRL-10317). Cells were grown under standard conditions (37 °C, 5% CO2, relative humidity), and culture media (DMEM/F12 for PNT2, WM 793, HT29, PC3, FTC133, 8505 C, MDA-MB-231, TPC-1; DMEM Low Glucose for DU145; DMEM High Glucose for HTB140, A375, HaCaT; MEM with NEAA for Caco2 and MCF7; RPMI1640 with sodium pyruvate for LNCaP; DMEM/F12 with 20 ng/mL epidermal growth factor (EGF), 10 μg/mL insulin, 0.5 μg/mL hydrocortisone, 100 ng/mL cholera toxin) for MCF10A) supplemented with 10% fetal bovine serum (FBS) or 5% donor horse serum for MCF10A, and 1% antibiotics solution (10,000 U penicillin and 10 mg streptomycin/mL) […], as previously described. All cell lines, culture media, and supplements were from Sigma-Aldrich (Germany).
(§2) The cells were seeded in 96-well plates (1.5 × 10^4 cells/well). After 24 h, fresh medium was added, containing the tested compounds (0.5–100 μg/mL) and incubated for 24 or 48 h. Cell viability was determined by MTT assay, according to the manufacturer’s instructions, as described previously. Each experiment was performed in triplicate. The absorbance was measured at 570 nm using a Biotek Synergy microplate reader (BioTek Instruments Inc., Winooski, VT, USA). Cell viability was expressed as a percent of control (untreated cells). Doxorubicin was used as a reference drug.

[2] = test system: LNCaP; experiment: MTT cell viability assay, LNCaP prostate adenocarcinoma cells; format: cell-based; details: Homo sapiens
Source text: as §1, §2

[3] = test system: Nthy-ori 3-1; experiment: MTT cell viability assay, Nthy-ori 3-1 normal thyroid epithelial cells; format: cell-based; details: Homo sapiens
Source text: as §1, §2

[4] = test system: PC3; experiment: MTT cell viability assay, PC3 prostate carcinoma cells; format: cell-based; details: Homo sapiens, PC-3
Source text: as §1, §2

[5] = test system: CCD 841 CoN; experiment: MTT cell viability assay, CCD 841 CoN normal colon epithelial cells; format: cell-based; details: Homo sapiens
Source text: as §1, §2

[6] = test system: HepG2; experiment: MTT cell viability assay, HepG2 hepatocellular carcinoma cells; format: cell-based; details: Homo sapiens
Source text: as §1, §2

[7] = test system: WM793; experiment: MTT cell viability assay, WM793 primary melanoma cells; format: cell-based, human; details: for IC50: Homo sapiens
Source text: as §1, §2
(§3) The selectivity index (SI) was calculated from the following formula:SI = IC50 of compound in a normal cell line/IC50 of compound in cancer cell line.IC50, half maximal inhibitory concentration, is a concentration required to kill 50% of the cells.

[8] = test system: 8505C; experiment: MTT cell viability assay, 8505C undifferentiated thyroid carcinoma cells; format: cell-based, human; details: Homo sapiens, 8505C
Source text: as §1, §2, §3

[9] = test system: TPC-1; experiment: MTT cell viability assay, TPC-1 papillary thyroid carcinoma cells; format: cell-based, human; details: for IC50: Homo sapiens, TPC1
Source text: as §1, §2, §3

[10] = test system: HT29; experiment: MTT cell viability assay, HT29 colorectal adenocarcinoma cells; format: cell-based; details: Homo sapiens, HT-29
Source text: as §1, §2

[11] = test system: MCF10A; experiment: MTT cell viability assay, MCF10A normal breast epithelial cells; format: cell-based; details: Homo sapiens, MCF-10A
Source text: as §1, §2

[12] = test system: HTB-140; experiment: MTT cell viability assay, HTB-140 metastatic melanoma cells; format: cell-based, human; details: for IC50: Homo sapiens
Source text: as §1, §2, §3

[13] = test system: MDA-MB-231; experiment: MTT cell viability assay, MDA-MB-231 breast adenocarcinoma cells; format: cell-based; details: Homo sapiens
Source text: as §1, §2

[14] = test system: HaCaT; experiment: MTT cell viability assay, HaCaT keratinocytes; format: cell-based; details: Homo sapiens
Source text: as §1, §2

[15] = test system: FTC133; experiment: MTT cell viability assay, FTC133 follicular thyroid carcinoma cells; format: cell-based, human; details: for IC50: Homo sapiens, FTC-133
Source text: as §1, §2, §3

[16] = test system: A375; experiment: MTT cell viability assay, A375 malignant melanoma cells; format: cell-based, human; details: for IC50: Homo sapiens, A-375
Source text: as §1, §2, §3

[17] = test system: Du-145; experiment: MTT cell viability assay, Du-145 prostate carcinoma cells; format: cell-based; details: Homo sapiens
Source text: as §1, §2

[18] = test system: MCF7; experiment: MTT cell viability assay, MCF7 breast adenocarcinoma cells; format: cell-based; details: Homo sapiens
Source text: as §1, §2

[19] = test system: PNT2; experiment: MTT cell viability assay, PNT2 normal prostate epithelial cells; format: cell-based; details: Homo sapiens
Source text: as §1, §2

[20] = test system: DLD-1; experiment: MTT cell viability assay, DLD-1 colon cancer cells; format: cell-based; details: Homo sapiens
Source text: as §1, §2

[21] = test system: HCT116; experiment: MTT cell viability assay, HCT116 colon cancer cells; format: cell-based; details: Homo sapiens, HCT-116
Source text: as §1, §2

## CC1(C)CC[C@]2(C(=O)O[C@@H]3O[C@H](CO)[C@@H](O)[C@H](O)[C@H]3O)CC[C@]3(C)C(=CC[C@@H]4[C@@]5(C)CC[C@H](O[C@@H]6O[C@H](C(=O)O)[C@@H](O)[C@H](O)[C@H]6O)C(C)(C)[C@@H]5CC[C@]43C)[C@@H]2C1 [ChIVa, 3-O-β-D-glucuronopyranosyl oleanolic acid 28-O-β-D-glucopyranosyl ester]
[1]; Caco-2, 24 h
  IC50: 69 µg/mL
[1]; Caco-2, 48 h
  IC50: 15.8 µg/mL
[2]; 24 h
  IC50: > 100 µg/mL
[2]; 48 h
  IC50: > 100 µg/mL
[3]; 24 h
  IC50: > 100 µg/mL
[3]; 48 h
  IC50: > 100 µg/mL
[4]; PC3, 24 h
  IC50: 45.6 µg/mL
[4]; PC3, 48 h
  IC50: 22.8 µg/mL
[5]; 24 h
  IC50: > 100 µg/mL
[5]; 48 h
  IC50: > 100 µg/mL
[6]; HepG2, 24 h
  IC50: 30 µg/mL
[6]; HepG2, 48 h
  IC50: 20.9 µg/mL
[7]; WM793, 24 h
  IC50: 18.5 µg/mL
[7]; WM793, 48 h
  IC50: 4.4 µg/mL
[7]; IC50 HaCaT / IC50 WM793, 24 h
  Selectivity Index (SI): 0.4
[7]; IC50 HaCaT / IC50 WM793, 48 h
  Selectivity Index (SI): 0.7
[8]; 24 h
  IC50: > 100 µg/mL
[8]; 48 h
  IC50: > 100 µg/mL
[9]; TPC-1, 24 h
  IC50: > 100 µg/mL
[9]; TPC-1, 48 h
  IC50: 81.8 µg/mL
[9]; IC50 Nthy-ori 3-1 / IC50 TPC-1, 48 h
  Selectivity Index (SI): > 1.2
[10]; HT29, 24 h
  IC50: 14.9 µg/mL
[10]; HT29, 48 h
  IC50: 5.6 µg/mL
[11]; 24 h
  IC50: > 100 µg/mL
[11]; 48 h
  IC50: > 100 µg/mL
[12]; HTB-140, 24 h
  IC50: 15 µg/mL
[12]; HTB-140, 48 h
  IC50: 8.7 µg/mL
[12]; IC50 HaCaT / IC50 HTB-140, 24 h
  Selectivity Index (SI): 0.5
[12]; IC50 HaCaT / IC50 HTB-140, 48 h
  Selectivity Index (SI): 0.4
[13]; MDA-MB-231, 24 h
  IC50: > 100 µg/mL
[13]; MDA-MB-231, 48 h
  IC50: 98.1 µg/mL
[14]; 24 h
  IC50: 7.3 µg/mL
[14]; 48 h
  IC50: 3.1 µg/mL
[15]; FTC133, 24 h
  IC50: 8.5 µg/mL
[15]; FTC133, 48 h
  IC50: 4 µg/mL
[15]; IC50 Nthy-ori 3-1 / IC50 FTC133, 24 h
  Selectivity Index (SI): > 11.76
[15]; IC50 Nthy-ori 3-1 / IC50 FTC133, 48 h
  Selectivity Index (SI): > 25.1
[16]; A375, 24 h
  IC50: 1.6 µg/mL
[16]; A375, 48 h
  IC50: 0.6 µg/mL
[16]; IC50 HaCaT / IC50 A375, 24 h
  Selectivity Index (SI): 4.6
[17]; DU-145, 24 h
  IC50: 22.9 µg/mL
[17]; DU-145, 48 h
  IC50: 9.1 µg/mL
[18]; MCF7, 24 h
  IC50: > 100 µg/mL
[18]; MCF7, 48 h
  IC50: > 100 µg/mL
[18]; MCF7, MCF-7, incubation time not stated
  IC50: > 100 µg/mL
[19]; 24 h
  IC50: > 100 µg/mL
[19]; 48 h
  IC50: > 100 µg/mL
[20]; DLD-1, 24 h
  IC50: > 100 µg/mL
[20]; DLD-1, 48 h
  IC50: 50.3 µg/mL
[21]; HCT116, 24 h
  IC50: > 100 µg/mL
[21]; HCT116, 48 h
  IC50: 78.2 µg/mL
